Data on two compounds can be found in ChEMBL document CHEMBL1142472, “New ferrocenic pyrrolo[1,2-a]quinoxaline derivatives: synthesis, and in vitro antimalarial activity” (Bioorg Med Chem, 2008).

Active and inactive are the calls of the source. The calls are words filed in the database; no cut-off is given here.

For the assay, the target named is T1, Histidine-rich protein PFHRP-II (Plasmodium falciparum) (UniProt P05227).
T1 sequence (whole entry): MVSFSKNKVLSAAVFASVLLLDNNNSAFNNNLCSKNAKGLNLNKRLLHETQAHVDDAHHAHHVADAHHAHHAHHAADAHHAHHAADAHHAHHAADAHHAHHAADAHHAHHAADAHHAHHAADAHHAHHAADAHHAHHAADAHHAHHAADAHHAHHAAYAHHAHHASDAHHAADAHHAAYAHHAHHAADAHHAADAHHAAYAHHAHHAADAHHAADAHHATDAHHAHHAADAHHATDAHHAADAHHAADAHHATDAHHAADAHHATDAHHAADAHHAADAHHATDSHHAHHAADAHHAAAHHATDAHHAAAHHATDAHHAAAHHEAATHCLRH
Description: Inhibition of beta-hematin formation assessed as drug: hematin molar ratio causing inhibition of hem polymerization after 24 hrs by HPIA method. The format is functional.

Consider `C[C@@H]1CC[C@H]2[C@@H](C)C(=O)O[C@@H]3O[C@@]4(C)CC[C@@H]1[C@]32OO4`, for which the Ratio IC50 came out at 1.5.
In the case of `COc1cc(NS(=O)(=O)c2ccc(N)cc2)nc(OC)n1`, the outcome was inactive.
